Holding throughout (format): in vivo
For assay [1], the system named is IPOHE (Ipomoea hederacea Jacq., ivyleaf morningglory). Description: Example I postemergence foliar-applied mixtures, direct seeded rice weeds, greenhouse: IPOHE. Particulars: glyphosate DMA salt (Durango DMA) alone, 105 gae/ha. The procedure: (§1) Seeds or nutlets of the desired test plant species were planted in a soil matrix prepared by mixing a loam or sandy loam soil (e.g., 28.6 percent silt, 18.8 percent clay, and 52.6 percent sand, with a pH of about 5.8 and an organic matter content of about 1.8 percent) and calcareous grit in an 80 to 20 ratio. The soil matrix was contained in plastic pots with a volume of 1 quart and a surface area of 83.6 square centimeters (cm^2). […] The plants were grown for 8-22 days in a greenhouse with an approximate 14 hr photoperiod which was maintained at about 29° C. during the day and 26° C. during the night. Nutrients (Peters Excel® 15-5-15 5-Ca 2-Mg and iron chelate) were applied in the irrigation solution as needed and water was added on a regular basis. Supplemental lighting was provided with overhead metal halide 1000-Watt lamps as necessary. The plants were employed for testing when they reached the first through fourth true leaf stage.
(§2) Treatments consisted of the acid or esters of 4-amino-3-chloro-5-fluoro-6-(4-chloro-2-fluoro-3-methoxy-phenyl)pyridine-2-carboxylic acid (Compound A), each formulated as an SC (suspension concentrate), and various herbicidal components alone and in combination. Forms of compound A were applied on an acid equivalent basis.
(§3) For treatments comprised of formulated compounds, measured amounts of compounds were placed individually in 25 mL glass vials and diluted in a volume of 1.25% (v/v) Agri-Dex® crop oil concentrated to obtain 12× stock solutions. […] Application solutions were prepared by adding an appropriate amount of each stock solution (e.g., 1 mL) and diluted to the appropriate final concentrations with the addition of 10 mL of an aqueous mixture of 1.25% (v/v) crop oil concentrate so that the final spray solutions contained 1.25+/−0.05% (v/v) crop oil concentrate.
(§4) All stock solutions and applications solutions were visually inspected for compound compatibility prior to application. Spray solutions were applied to the plant material with an overhead Mandel track sprayer equipped with a 8002E nozzles calibrated to deliver 187 L/ha over an application area of 0.503 m^2 at a spray height of 18 to 20 inches (46 to 50 cm) above average plant canopy height. Control plants were sprayed in the same manner with the solvent blank.
(§5) The treated plants and control plants were placed in a greenhouse as described above and watered by sub-irrigation to prevent wash-off of the test compounds. After approximately 3 weeks, the condition of the test plants as compared with that of the untreated plants was determined visually and scored on a scale of 0 to 100 percent where 0 corresponds to no injury or growth inhibition and 100 corresponds to complete kill.
(§6) Colby's equation was used to determine the herbicidal effects expected from the mixtures (Colby, S. R. 1967. Calculation of the synergistic and antagonistic response of herbicide combinations. Weeds 15:20-22.).

Assay [2] deals with DIGSA (Digitaria sanguinalis (L.) Scop., large crabgrass). The assay can be described thus: Example I postemergence foliar-applied mixtures, direct seeded rice weeds, greenhouse: DIGSA. Conditions: glyphosate DMA salt (Durango DMA) alone, 210 gae/ha. On the procedure: as §1, §2, §3, §4, §5, §6
Assay [3] has as its system SETFA (Setaria faberi Herrm., giant foxtail). Description: Example IV postemergence foliar-applied mixtures, general weed control, greenhouse: SETFA. Conditions: glyphosate DMA salt (Durango DMA) alone. On the procedure:
(§7) Seeds or nutlets of the desired test plant species were planted in Sun Gro Metro-Mix® 360 planting mixture, which typically has a pH of 6.0 to 6.8 and an organic matter content of about 30 percent, in plastic pots with a surface area of 84.6 square centimeters (cm^2). […] The plants were grown for 7-31 days (d) in a greenhouse with an approximate 15 hour (h) photoperiod which was maintained at about 23-29° C. during the day and 22-28° C. during the night. Nutrients (Peters Excel® 15-5-15 5-Ca 2-Mg) and water were added on a regular basis and supplemental lighting was provided with overhead metal halide 1000-Watt lamps as necessary. The plants were employed for testing when they reached the first, second, or third true leaf stage.
(§8) Treatments consisted of the acid or the benzyl ester of 4-amino-3-chloro-5-fluoro-6-(4-chloro-2-fluoro-3-methoxy-phenyl)pyridine-2-carboxylic acid (Compound A), each formulated as an SC, and various herbicidal components alone and in combination. Forms of compound A were applied on an acid equivalent basis.
(§9) Other herbicidal components were applied on an acid equivalent or active ingredient basis and included the 5-enolpyruvylshikimate-3-phosphate synthase (EPSPS)-inhibiting herbicide, glyphosate dimethylamine salt, formulated as Durango DMA® and the glutamine synthase (GS)-inhibiting herbicide, glufosinate ammonium, formulated as Ignite® 280.
(§10) For treatments comprised of formulated compounds, measured amounts of compounds were placed individually in 25 mL glass vials and diluted in a volume of 1.25% (v/v) Agri-dex crop oil concentrated to obtain 12× stock solutions. […] Application solutions were prepared by adding an appropriate amount of each stock solution (typically 1 mL) and diluted to the appropriate final concentrations with the addition of 10 mL of an aqueous mixture of 1.25% (v/v) Agri-dex crop oil concentrate so that the final spray solutions contained 1.25% (v/v) Agri-dex crop oil concentrate.
(§11) All stock solutions and applications solutions were visually inspected for compound compatibility prior to application. Compound requirements are based upon a 12 mL application volume at a rate of 187 liters per hectare (L/ha). Formulated compounds were applied to the plant material with an overhead Mandel track sprayer equipped with 8002E nozzles calibrated to deliver 187 L/ha over an application area of 0.503 square meters (m^2) at a spray height of 18 to 20 inches (46 to 50 cm) above the average plant canopy height. Control plants were sprayed in the same manner with the solvent blank.
as §5
(§12) Colby's equation was used to determine the herbicidal effects expected from the mixtures (Colby, S. R. 1967. Calculation of the synergistic and antagonistic response of herbicide combinations. Weeds 15:20-22.) .

Assay [4] deals with CHEAL (Chenopodium album L., common lambsquarters). The assay can be described thus: Example IV postemergence foliar-applied mixtures, general weed control, greenhouse: CHEAL. Conditions: glyphosate DMA salt (Durango DMA) alone. The procedure:
as §7, §8, §9, §10, §11, §5, §12

Assay [5] concerns DIGSA (Digitaria sanguinalis (L.) Scop., large crabgrass). The assay can be described thus: Example IV postemergence foliar-applied mixtures, general weed control, greenhouse: DIGSA. Particulars: glyphosate DMA salt (Durango DMA) alone, 210 gae/ha. The procedure: as §7, §8, §9, §10, §11, §5, §12
Assay [6] relates to SORHA (Sorghum halepense (L.) Pers., johnsongrass). The assay can be described thus: Example III postemergence foliar-applied mixtures, row crop weeds (corn, soybean), greenhouse: SORHA. Particulars: glyphosate DMA salt (Durango DMA) alone. The procedure:
as §7, with “a soil matrix prepared by mixing a loam or sandy loam soil (e.g., 43 percent silt, 19 percent clay, and 38 percent sand, with” for “Sun Gro Metro-Mix® 360 planting mixture, which typically has”, “about 8.1” for “6.0 to 6.8”, “1.5 percent) and calcareous grit in an 80 to 20 ratio. The soil matrix was contained” for “30 percent,”, “square centimters (cm^2) and a volume of 560 cubic” for “square”, “(cm^3).” for “(cm^2).”
Treatments consisted of the acid or esters of 4-amino-3-chloro-5-fluoro-6-(4-chloro-2-fluoro-3-methoxy-phenyl)pyridine-2-carboxylic acid (Compound A), each formulated as an
SC (suspension concentrate), and various herbicidal components alone and in combination. Forms of compound A were applied on an acid equivalent basis.
as §9
For treatments comprised of formulated compounds, measured amounts of compounds were placed individually in 25 mL glass vials and diluted in a volume of 1.5% (v/v) Agri-dex® crop oil concentrate to obtain 6× stock solutions. […] Application solutions were prepared by adding an appropriate amount of each stock solution (typically 2 mL) and diluted to the appropriate final concentrations with the addition of an aqueous mixture of 1.5% (v/v) crop oil concentrate and water so that the final spray solutions contained 1.25% (v/v) crop oil concentrate.
as §11
The treated plants and control plants were placed in a greenhouse as described above and watered by sub-irrigation to prevent wash-off of the test compounds. After approximately 2 weeks, the condition of the test plants as compared with that of the untreated plants was determined visually and scored on a scale of 0 to 100 percent where 0 corresponds to no injury or growth inhibition and 100 corresponds to complete kill.
The following equation was used to calculate the expected activity of mixtures containing two active ingredients, A and B: […]

The test system of assay [7] is VIOTR (Viola tricolor L., wild violet). The assay can be described thus: Example IV postemergence foliar-applied mixtures, general weed control, greenhouse: VIOTR. Conditions: glyphosate DMA salt (Durango DMA) alone. On the procedure: as §7, §8, §9, §10
All stock solutions and applications solutions were visually inspected for compound compatibility prior to application. Compound requirements are based upon a 12 mL application volume at a rate of 187 liters per hectare (L/ha). […]
The treated plants and control plants were placed in a greenhouse as described above and watered by sub-irrigation to prevent wash-off of the test compounds. After approximately 3 weeks, the condition of the test plants as compared with that of the untreated plants was determined visually and scored on a scale of 0 to 100 percent where 0 corresponds to no injury or growth inhibition and 100 corresponds to complete kill. […]

Counter-ions that a name gives are not always drawn.

With `O=C(O)CNCP(=O)(O)O` [Glyphosate DMA Salt, N-(phosphonomethyl)glycine, reference compound], the “Visual Weed Control (%) - 21 DAA IPOHE Obs” value in assay [1] was 30%. The “Visual Weed Control (%) - 21 DAA DIGSA Obs” value in assay [2] is on record as 75%. Moreover, the entries for the “VisualWeed Control (%) - 18 DAA SETFA Obs” value in assay [3] (210 gae/ha) and in assay [3] (420 gae/ha) were 10% and 90%, respectively. The “Visual Weed Control (%) - 18 DAA CHEAL Obs” value was found to be 0% in assay [4] (420 gae/ha) and 30% in assay [4] (840 gae/ha). Also, in assay [5], the “Visual Weed Control (%) - 18 DAA DIGSA Obs” value amounted to 40%. Moreover, the “Visual Weed Control (%) - 16 DAA SORHA Obs” value in assay [6] (105 gae/ha) worked out at 0%; in assay [6] (210 gae/ha) it was 10%; in assay [6] (420 gae/ha) it was 25%. Besides, the “Visual Weed Control (%) - 18 DAA VIOTR Obs” value in assay [7] (210 gae/ha) stood at 60%; in assay [7] (420 gae/ha) it was 85%.

The values are drawn from patent publication US20140031227A1, “HERBICIDAL COMPOSITIONS COMPRISING 4-AMINO-3-CHLORO-5-FLUORO-6-(4-CHLORO-2-FLUORO-3-METHOXYPHENYL) PYRIDINE-2-CARBOXYLIC ACID OR A DERIVATIVE THEREOF AND GLYPHOSATE OR GLUFOSINATE” (DOW AGROSCIENCES LLC, priority 2012, published 2014).
